Assay results as given in patent US20230310573A1, “Stabilized Vaccine Compositions” (priority 2020, published 2023).

Key:
[1] = biological target: T1, RSV pre-fusion F protein of SEQ ID NO: 10 (Human respiratory syncytial virus A, UniProt P03420, D486N/DEL108-136/I379V/M447V/N67I/P102A/S215P); format: physicochemical; conditions: for trimer % after slow freeze with compound vs without: all formulation buffers (AP1, FB12, formulation 1 and 2); for aggregation after slow freeze: formulation 5b (pH 8.3) and 5a (pH 7.0)
T1 construct: made in house
Description: The RSV pre-fusion F protein of SEQ ID NO: 10 was diluted to 0.3 mg/ml in phosphate buffer (Formulation 1) and 0.75 ml was filled in glass injection vials with rubber stopper and sealed with aluminum caps. Additionally, protein was diluted in the formulation buffers with inhibitor in a 1:3 trimer:compound ratio. One inhibitor binds one trimer so with a 1:3 ratio there is an excess of inhibitor. […] In 24 hours, samples were cooled down from RT to −70° C. Samples were thawed to RT and analyzed by analytical Size Exclusion Chromatography (SEC) to measure loss of RSV F trimer.
0.75 ml of each formulation was filled in glass injection vials with rubber stopper and sealed with aluminum caps. Additionally, protein was diluted in the formulation buffers and inhibitor was added in a 1:1, 1:3, 1:9, 1:27 and 1:50 trimer: compound ratio. Final compound concentrations were 1.7×10^−6 M, 5.2×10^−6 M, 1.6×10^−5M, 4.6×10^−5, and 8.6×10^−5 M, respectively. Vials were slowly frozen to −70° C. in 24 hours. Samples were subsequently thawed to RT and analyzed by analytical Size Exclusion Chromatography (SEC) to measure loss of RSV F trimer compared the sample that was kept at 4° C.

[2] = biological target: T2, RSV pre-fusion F (preF) protein of SEQ ID NO: 10 (Human respiratory syncytial virus A, UniProt P03420, D486N/DEL108-136/I379V/M447V/N67I/P102A/S215P); format: physicochemical; conditions: with compound 1:3 trimer:compound in sample and UF/DF buffer; formulation 2 without PS20; two weeks after UF/DF
T2 construct: made in house
Description: The UF/DF was performed with and without compound. […] A kDa filter in the UF/DF (Cogent μscale TFF system (Merck Millipore, Burlington, MA)) was used and a diavolume of 350 ml UF/DF buffer was used.
After the UF/DF the hydrodynamic diameters were measured by Dynamic Light Scattering (DLS) UNcle from vendor Unchained Labs (Pleasanton, CA, US) two weeks after the UF/DF.

HIV-1 ConB-SOSIP Env = HIV-1 ConB-SOSIP Env (Human immunodeficiency virus type 1 group M subtype B, UniProt P04578, A336T/A346V/A501C/A612T/D137T/D187N/D632E/D99N/DEL145-146/DEL310-311/DEL356-356/DEL401-405/DUP460-460/E409T/E464T/E509R/E620D/E630Q/F175L/F396S/G167D/G321D/H625N/H643Y/I148K/I181V/I182V/I320G/I360V/I467T/I559P/I580V/INS134N/INS317Y/INS395N/INS508RR/K130N/K135N/K192R/K322I/K362N/K429E/K510R/L518M/M147E/M326I/M535I/N230D/N325D/N624D/N636D/Q621E/R306S/R308H/S128T/S162T/S347K/S387T/S398G/S411N/S440R/S461N/S465T/S640G/S644T/T140N/T188N/T194I/T232K/T290E/T31A/T373M/T605C/T626M/V275E/V318A/V87E); assay: Thermostability of HIV-1 ConB-SOSIP Env by nanoDSF; format: physicochemical; conditions: 50-fold molar excess of inhibitor; Env 0.8 mg/ml; DMSO 1.95% v/v
HIV Env ConB SOSIP = biological target: T3, HIV Env ConB SOSIP (Human immunodeficiency virus type 1 group M subtype B, UniProt P04578, A336T/A346V/A501C/A612T/D137T/D187N/D632E/D99N/DEL145-146/DEL310-311/DEL356-356/DEL401-405/DUP460-460/E409T/E464T/E509R/E620D/E630Q/F175L/F396S/G167D/G321D/H625N/H643Y/I148K/I181V/I182V/I320G/I360V/I467T/I559P/I580V/INS134N/INS317Y/INS395N/INS508RR/K130N/K135N/K192R/K322I/K362N/K429E/K510R/L518M/M147E/M326I/M535I/N230D/N325D/N624D/N636D/Q621E/R306S/R308H/S128T/S162T/S347K/S387T/S398G/S411N/S440R/S461N/S465T/S640G/S644T/T140N/T188N/T194I/T232K/T290E/T31A/T373M/T605C/T626M/V275E/V318A/V87E); assay: Storage stability of ConB-SOSIP Env, antigenicity by AlphaLISA (bNAbs / non-bNAbs); format: binding, HIV-1; conditions: 1 week at 4° C., 50-fold excess
T3 construct: made in house; host or cells: HEK293F
Description: HIV env trimer was incubated in Citrate buffer (20 mM Citrate. 75 mM NaCl 5% Sucrose, 0.03% Tween-80 pH 6.0) at 0.8 mg/ml for 1 week at 4° C. with or without inhibitor. Entry inhibitor XVII was added in a 50-fold excess to the purified Env ConB SOSIP. As the inhibitor was dissolved in DMSO, the control sample with only Env contained the same concentration of DMSO (1.95% v/v) as the Env with the inhibitor. The quality of HIV Env can be evaluated with broadly neutralizing antibodies (bNAbs) that bind the closed, native pre-fusion conformation of Env, versus non-broadly neutralizing antibodies (non-bNAbs) which recognize non natively folded Envs (Rutten et. al., Cell Reports 18). […] Preferential binding to bNAbs was higher and binding to all five tested non-bNAbs, except for 447-52D, was decreased for the composition that contained the inhibitor.

| SMILES | trimer % after slow freeze with compound vs without [1] | aggregation after slow freeze [1] | trimer signal lost after slow freeze/thaw (analytical SEC) ([1]; phosphate buffer (Formulation 1), preF 0.3 mg/ml, 1:3 trimer:compound, RT to −70° C. in 24 hours) | hydrodynamic diameter (DLS) after UF/DF [2] [nm] | increase of melting temperature of Env (nanoDSF) (HIV-1 ConB-SOSIP Env) [°C] | binding to bNAbs vs Env without inhibitor (HIV Env ConB SOSIP) | binding to five tested non-bNAbs, except for 447-52D, vs Env without inhibitor (HIV Env ConB SOSIP) | quality of HIV Env by antigenicity (AlphaLISA) vs Env without inhibitor (HIV Env ConB SOSIP; Citrate buffer pH 6.0) |
| --- | --- | --- | --- | --- | --- | --- | --- | --- |
| CS(=O)(=O)CCCn1c(Cn2c(=O)n(C3CC3)c3ccncc32)nc2cc(Cl)ccc21 [Compound II, 3-[[5-chloro-1-(3-methylsulfonylpropyl)benzimidazol-2-yl]methyl]-1-cyclopropyl-imidazo[4,5-c]pyridin-2-one] | higher trimer % | no aggregations were observed | 2.4+/−1.9% | – | – | – | – | – |
| CS(=O)(=O)CCCn1c(Cn2c(=O)n(CC(F)(F)F)c3ccncc32)cc2cc(Cl)ccc21 [Compound IV, 3-[[5-chloro-1-(3-methylsulfonylpropyl)indol-2-yl]methyl]-1-(2,2,2-trifluoroethyl)imidazo[4,5-c]pyridin-2-one] | higher trimer % | no aggregations were observed | – | 8.65 | – | – | – | – |
| COc1ccnc2[nH]cc(C(=O)C(=O)N3CCN(C(=O)c4ccccc4)C[C@H]3C)c12 [XVII, 1-[(2R)-4-benzoyl-2-methyl-piperazin-1-yl]-2-(4-methoxy-1H-pyrrolo[2,3-b]pyridin-3-yl)ethane-1,2-dione] | – | – | – | – | ~5 | higher | decreased | superior |
